From ChEMBL document CHEMBL1201862, “PubChem BioAssay data set” (2004)
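These data come from cells grown in 96-well plates and exposed to compound for 48 hours at five concentrations. Here, GI50 denotes the concentration required for 50% inhibition of growth.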 Active and inactive are the calls of the source. No stated cut-off is given here; in the data, active = GI50 up to about 1.1 µM and inactive = higher.

Experiments:
Assay in all cases: NCI-60 cell line screen, 48 h
ACHN = tested on: ACHN
BT-549 = tested on: BT-549
CCRF-CEM = tested on: CCRF-CEM
DU-145 = tested on: DU-145
Hs-578T = tested on: Hs-578T
MDA-MB-435 = tested on: MDA-MB-435
Malme-3M = tested on: Malme-3M
NCI/ADR-RES = tested on: NCI/ADR-RES
OVCAR-3 = tested on: OVCAR-3
OVCAR-8 = tested on: OVCAR-8
PC-3 = tested on: PC-3
RPMI-8226 = tested on: RPMI-8226
SF-539 = tested on: SF-539
SR = tested on: SR
T47D = tested on: T47D
DMS-114 = tested on: DMS-114
LXFL 529 = tested on: LXFL 529
SK-OV-3 = tested on: SK-OV-3
XF498 = tested on: XF498
HOP-18 = tested on: HOP-18

Compound	GI50 (ACHN)	GI50 (BT-549)	GI50 (CCRF-CEM)	GI50 (DU-145)	GI50 (Hs-578T)	GI50 (MDA-MB-435)	GI50 (Malme-3M)	GI50 (NCI/ADR-RES)	GI50 (OVCAR-3)	GI50 (OVCAR-8)	GI50 (PC-3)	GI50 (RPMI-8226)	GI50 (SF-539)	GI50 (SR)	GI50 (T47D)	GI50 (DMS-114)	GI50 (LXFL 529)	GI50 (SK-OV-3)	GI50 (XF498)	GI50 (HOP-18)
Cc1cc(C)c(S(=O)(=O)N(CCCCCN)OCCCN)c(C)c1	19.5 µM (inactive)	17.4 µM (inactive)	20.7 µM (inactive)	16.7 µM (inactive)	22 µM (inactive)	18.2 µM (inactive)	23.4 µM (inactive)	18 µM (inactive)	17.5 µM (inactive)	18.8 µM (inactive)	14.7 µM (inactive)	11.7 µM (inactive)	11.9 µM (inactive)	12.7 µM (inactive)	20.6 µM (inactive)	–	–	–	–	–
COc1ccc(N2C(Cl)C(=O)C2c2c[nH]c3ccccc23)cc1 (stereo unspecified)	–	–	> 100 µM (inactive)	–	–	–	72.6 µM (inactive)	–	> 100 µM (inactive)	> 100 µM (inactive)	–	> 100 µM (inactive)	> 100 µM (inactive)	> 100 µM (inactive)	–	> 100 µM (inactive)	> 100 µM (inactive)	> 100 µM (inactive)	> 100 µM (inactive)	–
CC(=O)c1c(-c2ccco2)c(C#N)c(=S)n(C2OC(CO)C(O)C(O)C2O)c1C (stereo unspecified)	> 100 µM (inactive)	> 100 µM (inactive)	83.9 µM (inactive)	> 100 µM (inactive)	64.9 µM (inactive)	36.4 µM (inactive)	> 100 µM (inactive)	75.9 µM (inactive)	> 100 µM (inactive)	> 100 µM (inactive)	> 100 µM (inactive)	> 100 µM (inactive)	56 µM (inactive)	97.5 µM (inactive)	35.5 µM (inactive)	–	–	> 100 µM (inactive)	–	–
O=C(CCl)NNC1=Nc2ccc(Cl)cc2SC1	–	–	0.612 µM (active)	–	–	–	1.69 µM (inactive)	1.8 µM (inactive)	1.78 µM (inactive)	1.4 µM (inactive)	–	1.86 µM (inactive)	2.02 µM (inactive)	–	–	1.98 µM (inactive)	–	6.61 µM (inactive)	1.85 µM (inactive)	1.88 µM (inactive)
CN(C(=O)c1ccccc1)c1ccc2c(c1)C(=O)c1ccccc1C2=O	> 100 µM (inactive)	–	> 100 µM (inactive)	–	–	–	> 100 µM (inactive)	–	> 100 µM (inactive)	> 100 µM (inactive)	–	> 100 µM (inactive)	–	> 100 µM (inactive)	–	> 100 µM (inactive)	> 100 µM (inactive)	> 100 µM (inactive)	> 100 µM (inactive)	–
CCCCCn1cc2c3c(cccc31)C1C=C(C)CN(C)[C@@H]1C2.Cc1ccc(C(=O)OC(C(=O)O)C(OC(=O)c2ccc(C)cc2)C(=O)O)cc1 (stereo unspecified)	–	–	4.25 µM (inactive)	–	–	–	2.56 µM (inactive)	6.17 µM (inactive)	6.75 µM (inactive)	12.3 µM (inactive)	–	2.64 µM (inactive)	9.95 µM (inactive)	–	–	3.47 µM (inactive)	–	9.93 µM (inactive)	2.67 µM (inactive)	2.33 µM (inactive)
CC1(C(=O)O)CCC(C(=O)O)C(C)(C)O1 (stereo unspecified)	> 100 µM (inactive)	> 100 µM (inactive)	> 100 µM (inactive)	> 100 µM (inactive)	> 100 µM (inactive)	> 100 µM (inactive)	> 100 µM (inactive)	> 100 µM (inactive)	29.2 µM (inactive)	> 100 µM (inactive)	> 100 µM (inactive)	> 100 µM (inactive)	> 100 µM (inactive)	–	> 100 µM (inactive)	–	–	> 100 µM (inactive)	–	–
N#C/C(=C\c1ccncc1)c1csc2ccccc12	–	–	20.4 µM (inactive)	–	–	–	32.7 µM (inactive)	22.1 µM (inactive)	21.3 µM (inactive)	28.5 µM (inactive)	–	18.6 µM (inactive)	21.4 µM (inactive)	–	–	–	–	34.8 µM (inactive)	22.3 µM (inactive)	31.1 µM (inactive)
COc1cc(C2C(Cl)C(=O)N2NC(=O)c2ccccc2O)ccc1O (stereo unspecified)	> 100 µM (inactive)	–	> 100 µM (inactive)	–	–	–	> 100 µM (inactive)	–	> 100 µM (inactive)	70.8 µM (inactive)	–	–	> 100 µM (inactive)	–	–	> 100 µM (inactive)	> 100 µM (inactive)	> 100 µM (inactive)	> 100 µM (inactive)	34.8 µM (inactive)
